The record followed here is patent US20250282799A1, “SUBSTITUTED PYRIDO[4,3-d]PYRIMIDINES AS KRAS MODULATORS” (Alterome Therapeutics, Inc., priority 2023, published 2025).

The experiment deals with KRAS G12V dependent lung adenocarcinoma cell line, NCI-H441. Description: Cellular pERK (Thr202/Tyr204) FRET/HTRF assay. Type of experiment: cell-based. Particulars: Homo sapiens, NCI-H441, cellular pERK (Thr202/Tyr204) HTRF, NCI-H441 cells. In outline: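 Read-out is a wash-free FRET sandwich immunoassay for endogenous ERK1/2 phosphorylated on Thr202/Tyr204. Signal was measured in NCI-H441 lung adenocarcinoma cells after 1 hr compound exposure at 37 °C. IC50 values come from fitted concentration-response curves.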
(TR-FRET usually uses a lanthanide donor and a delayed reading to cut background.)
Regarding `[2H]C([2H])(Oc1nc(N2CCOC[C@@H]3[C@@H](F)[C@@H]32)c2cc(Cl)c(-c3cc(N)cc(C)c3C(F)(F)F)c(F)c2n1)[C@@]12CCCN1C[C@H](F)C2` [Example 181, 3-(6-chloro-8-fluoro-4-((1R,7R,8R)-8-fluoro-5-oxa-2-azabicyclo[5.1.0]octan-2-yl)-2-(((2R,7aS)-2-fluorotetrahydro-1H-pyrrolizin-7a(5H)-yl)methoxy-d2)quinazolin-7-yl)-5-methyl-4-(trifluoromethyl)aniline], the IC50 (as a rule, the concentration that gives 50% inhibition) lay within 500 to 10000 nM. The value for `[2H]C([2H])(Oc1nc(N2CCOC[C@@H]3[C@@H](F)[C@@H]32)c2ccc(-c3cc(N)cc(C)c3C(F)(F)F)c(F)c2n1)[C@@]12CCCN1C[C@H](F)C2` [Example 182, 3-(8-fluoro-4-((1R,7R,8R)-8-fluoro-5-oxa-2-azabicyclo[5.1.0]octan-2-yl)-2-(((2R,7aS)-2-fluorotetrahydro-1H-pyrrolizin-7a(5H)-yl)methoxy-d2)quinazolin-7-yl)-5-methyl-4-(trifluoromethyl)aniline] was 500 to 10000 nM; that for `[2H]C([2H])(Oc1nc(N2CCOC[C@H]3[C@H](F)[C@H]32)c2cc(Cl)c(-c3cc(N)cc(C4CC4)c3C(F)(F)F)c(F)c2n1)[C@@]12CCCN1C[C@H](F)C2` [Example 183, 3-(6-chloro-8-fluoro-4-((1S,7S,8S)-8-fluoro-5-oxa-2-azabicyclo[5.1.0]octan-2-yl)-2-(((2R,7aS)-2-fluorotetrahydro-1H-pyrrolizin-7a(5H)-yl)methoxy-d2)quinazolin-7-yl)-5-cyclopropyl-4-(trifluoromethyl)aniline] was 500 to 10000 nM. Molecule `[2H]C([2H])(Oc1nc(N2CCOC[C@@H]3[C@@H](F)[C@@H]32)c2cc(Cl)c(-c3cc(N)cc(C4CC4)c3C(F)(F)F)c(F)c2n1)[C@@]12CCCN1C[C@H](F)C2` [Example 184, 3-(6-chloro-8-fluoro-4-((1R,7R,8R)-8-fluoro-5-oxa-2-azabicyclo[5.1.0]octan-2-yl)-2-(((2R,7aS)-2-fluorotetrahydro-1H-pyrrolizin-7a(5H)-yl)methoxy-d2)quinazolin-7-yl)-5-cyclopropyl-4-(trifluoromethyl)aniline] came in with an IC50 of 500 to 10000 nM.

`[2H]C([2H])(Oc1nc(N2CCOC[C@@H]3[C@H]2[C@@]3([2H])F)c2cnc(-c3cc(N)cc4ccc(F)c(C#C)c34)c(F)c2n1)[C@@]12CCCN1C[C@H](F)C2` [Example 185, 5-ethynyl-6-fluoro-4-(8-fluoro-4-((1S,7S,8S)-8-fluoro-5-oxa-2-azabicyclo[5.1.0]octan-2-yl-8-d)-2-(((2R,7aS)-2-fluorotetrahydro-1H-pyrrolizin-7a(5H)-yl)methoxy-d2)pyrido[4,3-d]pyrimidin-7-yl)naphthalen-2-amine] registered an IC50 below 50 nM. `[2H]C([2H])(Oc1nc(N2CCOC[C@H]3[C@H](F)[C@H]32)c2cnc(-c3nc(N)cc(C)c3C(F)(F)F)c(F)c2n1)[C@@]12CCCN1C[C@H](F)C2` [Example 186, 6-(8-fluoro-4-((1S,7S,8S)-8-fluoro-5-oxa-2-azabicyclo[5.1.0]octan-2-yl)-2-(((2R,7aS)-2-fluorotetrahydro-1H-pyrrolizin-7a(5H)-yl)methoxy-d2)pyrido[4,3-d]pyrimidin-7-yl)-4-methyl-5-(trifluoromethyl)pyridin-2-amine]: the IC50 lay in the range of 50 to 500 nM.

As to `C#Cc1c(F)ccc2cc(N)cc(-c3ncc4c(N5CCOC[C@H]6[C@H](F)[C@H]65)nc(OC[C@@]56CCCN5CC5(CC5)C6)nc4c3F)c12` [Example 187, 4-(2-(((S)-dihydro-1′H,3′H-spiro[cyclopropane-1,2′-pyrrolizin]-7a′(5′H)-yl)methoxy)-8-fluoro-4-((1S,7S,8S)-8-fluoro-5-oxa-2-azabicyclo[5.1.0]octan-2-yl)pyrido[4,3-d]pyrimidin-7-yl)-5-ethynyl-6-fluoronaphthalen-2-amine], the IC50 is below 50 nM. Molecule `[2H]C([2H])(F)Oc1c(F)ccc2cc(N)cc(-c3ncc4c(N5CCOC[C@H]6[C@H](F)[C@H]65)nc(OC[C@@]56CCCN5C/C(=C\F)C6)nc4c3F)c12` [Example 188, 6-Fluoro-4-(8-fluoro-4-((1S,7S,8S)-8-fluoro-5-oxa-2-azabicyclo[5.1.0]octan-2-yl)-2-(((S,Z)-2-(fluoromethylene)tetrahydro-1H-pyrrolizin-7a(5H)-yl)methoxy)pyrido[4,3-d]pyrimidin-7-yl)-5-(fluoromethoxy-d2)naphthalen-2-amine] yielded an IC50 below 50 nM. As for `[2H]C([2H])(F)Oc1c(F)ccc2cc(N)cc(-c3ncc4c(N5CCOC[C@H]6[C@H](F)[C@H]65)nc(OC[C@@]56CCCN5CC(=C)C6)nc4c3F)c12` [Example 189, 6-fluoro-4-(8-fluoro-4-((1S,7S,8S)-8-fluoro-5-oxa-2-azabicyclo[5.1.0]octan-2-yl)-2-(((S)-2-methylenetetrahydro-1H-pyrrolizin-7a(5H)-yl)methoxy)pyrido[4,3-d]pyrimidin-7-yl)-5-(fluoromethoxy-d2)naphthalen-2-amine], the IC50 is below 50 nM.

`[2H]C([2H])(Oc1nc(N2CCOC[C@H]3[C@H](F)[C@H]32)c2cc(Cl)c(-c3cc(N)c(F)c(C)c3C(F)(F)F)c(F)c2n1)[C@@]12CCCN1C[C@H](F)C2` [Example 190, 5-(6-chloro-8-fluoro-4-((1S,7S,8S)-8-fluoro-5-oxa-2-azabicyclo[5.1.0]octan-2-yl)-2-(((2R,7aS)-2-fluorotetrahydro-1H-pyrrolizin-7a(5H)-yl)methoxy-d2)quinazolin-7-yl)-2-fluoro-3-methyl-4-(trifluoromethyl)aniline] showed an IC50 of 50 to 500 nM. In turn, `[2H]C([2H])(Oc1nc(N2CCOC[C@@H]3[C@@H](F)[C@@H]32)c2cc(Cl)c(-c3cc(N)c(F)c(C)c3C(F)(F)F)c(F)c2n1)[C@@]12CCCN1C[C@H](F)C2` [Example 191, 5-(6-chloro-8-fluoro-4-((1R,7R,8R)-8-fluoro-5-oxa-2-azabicyclo[5.1.0]octan-2-yl)-2-(((2R,7aS)-2-fluorotetrahydro-1H-pyrrolizin-7a(5H)-yl)methoxy-d2)quinazolin-7-yl)-2-fluoro-3-methyl-4-(trifluoromethyl)aniline] had an IC50 of 500 to 10000 nM. The value for `[2H]C([2H])([2H])Oc1c(F)cc(F)c2cc(N)cc(-c3ncc4c(N5CCOC[C@H]6[C@H](F)[C@H]65)nc(OC[C@@]56CCCN5CC(=C)C6)nc4c3F)c12` [Example 192, 6,8-difluoro-4-(8-fluoro-4-((1S,7S,8S)-8-fluoro-5-oxa-2-azabicyclo[5.1.0]octan-2-yl)-2-(((S)-2-methylenetetrahydro-1H-pyrrolizin-7a(5H)-yl)methoxy)pyrido[4,3-d]pyrimidin-7-yl)-5-(methoxy-d3)naphthalen-2-amine] was below 50 nM. As for `[2H]C1([2H])CC[C@@]2(C([2H])([2H])Oc3nc(N4CCOC[C@H]5[C@H](F)[C@H]54)c4cnc(-c5cc(N)cc6ccc(F)c(C#C)c56)c(F)c4n3)C[C@@]([2H])(F)CN12` [Example 193, 5-ethynyl-6-fluoro-4-(8-fluoro-4-((1S,7S,8S)-8-fluoro-5-oxa-2-azabicyclo[5.1.0]octan-2-yl)-2-(((2R,7aS)-2-fluorotetrahydro-1H-pyrrolizin-7a(5H)-yl-2,5,5-d3)methoxy-d2)pyrido[4,3-d]pyrimidin-7-yl)naphthalen-2-amine], the IC50 is below 50 nM.
